Experimental data: patent US10829441B2, “Reactive oxygen species-sensitive nitric oxide synthase inhibitors for the treatment of ischemic stroke” (The University of Toledo, priority 2017, dated 2020)
Several values for one entry are separate records, joined by “and”; a condition that tells them apart may be missing. Equal values may be shown once. Entries after “also recorded” stand apart in the source; their conditions may differ.

Tests used:
[1] = test system: SH-SY5Y cells; test: Oxygen-glucose deprivation (OGD) viability of SH-SY5Y cells (PrestoBlue); assay type: cell-based, Human; conditions: for viability, ratio to vehicle control / viability relative to vehicle (in words): 1.5 hr OGD, 24 hr treatment
Method: (§1) Human neuroblastoma SH-SY5Y cells and SIM-A9 mouse microglia (ATCC) were separately cultured on poly-D-lysine coated plates in 1:1 Dulbecco's Modified Eagle Medium/Ham's F12 (DMEM/F12) medium containing 5% fetal bovine serum, 5% horse serum, and penicillin-streptomycin. Cultures were stored in a 37° C. incubator with a 5% CO2 atmosphere. Cells were allowed to adhere overnight prior to subjection to experimental systems. 1×10^6 cells SH-SY5Y cells on 96-well plates were used for OGD experiments, and SIM-A9 cells were plated at a density of 1×10^6 on 24-well plates for Griess experiments.
(§2) Growth medium was removed from SH-SY5Y cells and replaced with sterile HBSS (140 mM NaCl, 3.5 mM KCl, 0.4 mM KH2PO4, 5 mM NaHCO3, 1.3 mM CaCl2, 1.2 mM MgSO4, 20 mM HEPES, pH 7.4, bubbled with 95%/5% N2/CO2), and placed in an air-tight container subsequently purged three times with 95%/5% N2/CO2. The container was then placed in a 37° C. incubator for 1.5 hr. After OGD, the cells were returned to a normoxic environment, and medium was replaced with growth medium and vehicle or treatment for 24 hr to simulate reperfusion. Sham cells were left in growth medium under a normoxic environment. Viability was measured by adding 10% Presto-Blue® Cell Viability Reagent (Thermo Fisher) for 30 min, and reading fluorescence at 560 nm/590 nm excitation/emission. Viability is reported as a ratio to vehicle-treated control, and readings result from separate OGD experiments (e.g. n=6 was from 6 different OGD assays). The experimental furoxan IS-1-41 was used as a positive control for OGD viability due to its reproducible protection in this paradigm.

[2] = HPLC-PDA analysis of nitrone decomposition in radical-generating systems; assay type: physicochemical; conditions: for decomposition to aldehyde in .OH (Fe—H2O2) system (in words) / decomposition to aldehyde in O2.^−/HO2. (KO2) system (in words) / decomposition to aldehyde in ONOO^−/HCl system (in words): 24 hr incubation at 37° C.
Method: To a stirring solution of 5 (5.0 mg, 1.0 eq) in 785 μL PBS was added 20 μL 6 N HCl at 37° C. Peroxynitrite (200 μL of a 50 mM solution in 0.3 M NaOH, 0.5 eq) was added in 50 μL aliquots over 5 min. The reaction was allowed to stir for 1 hr and monitored by HPLC-PDA. The solution was extracted with CH2Cl2 (2×0.5 mL) and the aqueous fractions were pooled then lyophilized. Addition of ACN (1.0 mL) to the white solid followed by filtration allowed separation from the insoluble salts. Lyophilization afforded 6 as a white solid (1.2 mg, 33.7%), NMR (CD3OD, 400 MHz): δ 10.04 (1H, s), δ 7.93-7.95 (2H, m), δ 7.71-7.65 (2H, m), 4.58 (2H, s), δ 2.30 (3H, s).
EPR spectra were collected at ambient temperature with microwave power 12.6 mW, frequency 9.86 GHz, receiver gain 1.0×10^5 or 1.0×10^4, modulation amplitude 1 G, scan time 20.48 sec, time constant 40.96 msec, and sweep width 120 G. Phosphate buffered saline (PBS) used for EPR was supplemented with diethylenetriaminepent-acetic acid (DTPA, 100 μM). ROS-generating solutions were rapidly added to solutions of indicated spin trap and taken up in 50 μL glass capillary tubes for EPR spectral acquisition. For HPLC-PDA analysis, solutions were allowed to incubate for 24 hr at 37° C., then diluted 1:1000 in 95:5 mobile phase A:B, and analyzed as above. Benzaldehyde (Sigma) was run separately as a control to compare to PBN-ROS systems and confirm PBN decomposition.
A 50 μL final 20% PBS/DMSO solution of 35 mM 5 or PBN contained 10 μL saturated KO2 DMSO.
A 50 μL final 30% PBS/DMSO solution of 35 mM 5 or PBN contained 90 mM FeSO4 and 1% H2O2.
A solution of ONOO^− in 0.3 M NaOH (Cayman Chemical) was determined to be 50 mM by absorbance at 302 nm using the literature extinction coefficient (1670 M^−1cm^−1). A 50 μL final 30% PBS/DMSO solution of 5 or PBN contained 10 mM ONOO^− at pH˜6 (HCl).

[3] = Plasma and brain levels of 5 and 6 by LC-MS/MS 25 min after intravenous administration; assay type: in vivo, C57BL/6 mice
Method: (§3) Animals were anesthetized and the incision was performed as above to expose the temporal bone, through which the MCA was visible. The end of a fiber optic cable fitted to a MoorVMS-LDF Laser Doppler Monitor (Moor Instruments) was positioned in place over the MCA. The baseline CBF as flux was monitored for 5 min prior to intravenous injection by lateral tail vein of normal saline vehicle, […] (20 mg/kg), or 5. Measurements were taken every 5 minutes in triplicate for each animal, and reported as ratio to baseline. Animals were sacrificed at 25 min by CO2 inhalation, blood was collected into K2EDTA coated tubes (BD Microtainer®), and brains were rapidly dissected out and frozen on dry ice for LC-MS/MS analysis.
(§4) Synthesized 5, and purchased 4(1H-Imidazol-1-yl)benzaldehyde (IBA, Sigma) were used to determine LC-MS/MS fragmentation. A solution of 5+ONOO^−/HCl from EPR studies was used for 6 fragmentation. MRM analysis of IBA (m/z 173.10→91.10, 104.10, 117.05; RT: 4.13 min), 5 (m/z 248.20→148.00, 134.15, 190.05; RT: 4.81 min), and 6 (m/z 177.00→119.10, 90.95, 65.15; RT: 3.87 min) were determined. A standard curve for 5 was generated using pure samples applied to blank matrix (0.01 μM, 0.1 μM, 0.5 μM, 1.0 μM, and 5.0 μM; R2=0.99) using the above HPLC solvents and LC curve at 0.4 mL/min.
(§5) In vitro supernatant samples were spiked with internal standard (200 μL 500 nM IBA in 2% FA) and used as collected, while cells were detached by trypsin, centrifuged (14 k rpm, 5 min, 4° C.) to isolate the pellet, then lysed by sonication (Sonic Dismembrator 500, Fisher) in 1 mL cold PBS+internal standard. Blood samples (100 μL) were spiked with internal standard, and centrifuged to collect the supernatant. Brain samples were weighed, homogenized by a Bullet Blender Storm (Next Advance Inc.) in 500 μL cold PBS+internal standard for 1 min at 4° C., then centrifuged to collect the supernatant. All samples were then worked up by solid phase extraction (Evolute Ex-press ABN cartridge, 30 mg/l mL, Biotage) using a Vac-master manifold (Biotage). Columns were washed with dH2O (1 mL), and analytes were eluted with MeOH (1 mL) and evaporated to dryness by high flow air purge. Samples were reconstituted in 200 μL 95:5 mobile phase A:B and analyzed by LC-MS/MS (2.0 μL injection volume). All samples were run in duplicate, and AUC for 5 and 6 were normalized to the intra-run IBA AUC to account for loss during workup. 5 concentrations were determined using std. curve, while 6 was expressed as a percentage of 5 AUC.

[4] = test system: SH-SY5Y cells; test: OGD-induced formation of 6 from 5 in SH-SY5Y cells by LC-MS/MS; assay type: cell-based, Human; conditions: for level of 6 as 6:5 AUC: cell lysate (intracellular); for level of 6: supernatant
Method: as §2, §4, §5

[5] = test system: cleaved caspase-3; test: Western blot of SH-SY5Y cells exposed to OGD: cleaved caspase-3; assay type: cell-based, Human; conditions: 1.0 μM, 24 hr treatment, vs vehicle
[6] = test system: 3-Nitrotyrosine (3-NT); test: Western blot of SH-SY5Y cells exposed to OGD: 3-nitrotyrosine; assay type: cell-based, Human; conditions: 1.0 μM, 24 hr treatment, vs vehicle
[7] = test system: cerebral blood flow (CBF); test: Laser Doppler cerebral blood flow (CBF) over the MCA of anesthetized mice; assay type: in vivo, C57BL/6 mice; conditions: for time point at which CBF increased: isoamyl nitrate vs low dose of 5 (1 mg/kg), intravenous
Method: as §3

[8] = test system: phospho-Akt/total Akt ratio; test: Western blot of SH-SY5Y cells exposed to OGD: pAkt/Akt; assay type: cell-based, Human; conditions: 1.0 μM, 24 hr treatment
[9] = test system: permanent MCA occlusion (pMCAO); assay type: in vivo
[10] = test system: LPS-stimulated SIM-A9 cells; test: Griess assay of nitrite in LPS-stimulated SIM-A9 microglia; assay type: cell-based, mouse; conditions: LPS 100 ng/mL; for nitrite / NO production after LPS (in words): 1.0 μM to 50 μM, 24 hr (FIG. 14); for nitrite after LPS (in words): 24 hr (FIG. 15B); for decrease in nitrite: 24 hr
Method: as §1
SIM-A9 cells were treated with 100 ng/mL lipopolysaccharide (LPS, Sigma) along with vehicle or drug treatment for 24 hr. Conditioned medium was then diluted 1:1 with griess reagent (0.4% naphthylethylenediamine dihydro-chloride, and 4% sulphanilamide in 10% phosphoric acid), and analyzed by colorimetry at 540 nm after […]. Nitrite levels were reported as a ratio to LPS-treated, vehicle control.

[11] = 25 min after intravenous 5, n=6

Which results are given for `CC(=N)NCc1cccc(/C=[N+](\[O-])C(C)(C)C)c1` [compound 5, N-tert-butyl-α-(3-[ethanimidamidomethyl]phenyl)nitrone]?
viability, ratio to vehicle control ([1]; 0.1 μM): 1.21 times greater than vehicle; viability, ratio to vehicle control ([1]; 1.0 μM): 2.57 times greater than vehicle; viability relative to vehicle (in words) ([1]; 100 μM): decline to baseline; also recorded: not observed to be toxic, but rather non-neuroprotective; optimal dose (highest neuroprotection) ([1]; dose-finding study 0.05 μM to 100 μM): 1.0 µM; conversion of 5 to 6 by HPLC-PDA ([2]; 0.50 eq ONOO^−, PBS/HCl pH 6, 37° C., after one hour): 95.4%; decomposition to aldehyde in .OH (Fe—H2O2) system (in words) [2]: substantial formation of 6; also recorded: Minor 6 formation; decomposition to aldehyde in O2.^−/HO2. (KO2) system (in words) [2]: substantial formation of 6; also recorded: significant 6 formation; decomposition to aldehyde in ONOO^−/HCl system (in words) [2]: complete conversion; also recorded: no observed 5 remaining; Kp at 25 min ([3]; C57BL/6, mouse, in vivo): 0.029 ± 0.01; half-life (in words) ([3]; mouse, in vivo): short half-life; cell permeability (in words) [4]: cell permeable; cleaved caspase-3 reduction [5]: 47%; 3-NT ameliorated [6]: 48%; CBF over 20 min ([7]; 1 mg/kg intravenous): 126%±4.6%; CBF over 20 min ([7]; 10 mg/kg intravenous): 102%±0.7%; time point at which CBF increased [7]: 5 min; phospho-Akt/total Akt ratio ([8]; vs vehicle): 4.1 times higher; tolerability / adverse effects ([9]; 10 mg/kg and 1 mg/kg intravenous): well tolerated; forelimb grip strength (in words) ([9]; 24, 48, 72 hr after pMCAO): improved grip strength; rota rod performance (in words) ([9]; 24, 48, 72 hr after pMCAO): No significant differences; Neurological deficit scoring (NDS), 28-point system ([9]; 72 hr after pMCAO, 10 mg/kg iv at 3 and 6 hr, then 1 mg/kg twice daily): 4.2±0.4; decrease in infarct volume compared to vehicle ([9]; TTC staining 72 hr after pMCAO, 10 mg/kg iv at 3 and 6 hr, then 1 mg/kg twice daily): > 30% and 37%; nitrite / NO production after LPS (in words) [10]: not observed to lower NO production; nitrite after LPS (in words) ([10]; 1.0 μM): attenuated

With `CC(=N)NCc1cccc(C=O)c1` [compound 6, N-[(3-formylphenyl)methyl]ethanimidamide] as the molecule, how does the “level of 6 in brain” value [3, 11] read?
The value was 24.5%±0.1%.

And the “level of 6 in plasma” value [3, 11]?
Its value is 12.7%±0.2%.

And the “level of 6 as 6:5 AUC” value ([4]; OGD-exposed cells treated 24 hr with 10 μM 5)?
The value was 129 % 6:5 AUC.

What about the “level of 6 as 6:5 AUC” value ([4]; sham cells treated 24 hr with 10 μM 5) of the same molecule?
Its value is 29 % 6:5 AUC.

And the “level of 6” value ([4]; OGD-exposed cells treated with 5)?
The value was 18.6 % of 5 AUC.

What about the “level of 6” value ([4]; sham cells treated with 5) of the same molecule?
Its value is 7.88 % of 5 AUC.

And the “nitrite / NO production after LPS (in words)” value (shortened to “nitrite / NO production”) [10]?
The value was “dose-dependent decrease in nitrite”.

And the decrease in nitrite ([10]; 1.0 μM)?
Its decrease in nitrite is about 19%.

What about the decrease in nitrite ([10]; 50 μM) of the same molecule?
Its decrease in nitrite is −33%.

Which “nitrite / NO production” value [10] does the source give for `CC(=N)NCc1cccc(CN)c1` [1400W, reference compound] here?
Its value is “anti-inflammatory ability”.

And the “nitrite after LPS (in words)” value ([10]; 1.0 μM)?
The value was “attenuated”.

Which “viability relative to vehicle (in words)” value ([1]; 0.05 μM to 100 μM) does the source give for `CC(C)(C)[N+]([O-])=Cc1ccccc1` [PBN, N-tert-butyl-α-phenylnitrone, reference compound] here?
The value was “did not approach significance at any concentration tested”.

And the “decomposition to aldehyde in .OH (Fe—H2O2) system (in words)” value [2]?
The value was “minor formation”.

What about the “decomposition to aldehyde in O2.^−/HO2. (KO2) system (in words)” value [2] of the same molecule?
The value was “Significant BnA formation”.

And the “decomposition to aldehyde in ONOO^−/HCl system (in words)” value [2]?
The value was “Significant BnA formation”.

And the “phospho-Akt/total Akt ratio (in words)” value [8]?
The value was “increase was also observed; also recorded: increase in Akt phosphorylation, although not significant”.

What about the “nitrite / NO production” value [10] of the same molecule?
The value was “not observed to cause a reduction in nitrate”.

And the “nitrite after LPS (in words)” value ([10]; 1.0 μM)?
The value was “attenuated”.

For `CC(C)CCO[N+](=O)[O-]` [isoamyl nitrate, reference compound], which “CBF over 20 min” value ([7]; 20 mg/kg intravenous) is on record?
The value was 111%±4.0%.

And the “time point at which CBF increased” value [7]?
Its value is 20 min.
